The nature of series [1]: Solubility in lipofullerene base, confirmed by a turbidometer. Here is the method: Each of the above mixtures were sonicated for 30 seconds followed by vortexing for 12 hours in the dark.
A further series is described as follows: Water solubility. It counts as physicochemical. To be noted: read-out: Water solublity.
Another series deals with AsPC-1 cells. The series is described as follows: Xenograft studies. It counts as in vivo, nude mice. The conditions noted are these: oral gavage, 1 mg of triptolide/1 mL of C60-olive oil base, ~28 days. Here is the method:
AsPC-1 cells were purchased from American Type Culture Collection (ATCC). Cells were harvested from sub-confluent cultures after brief exposure to 0.25% trypsin and 0.2% EDTA. The cells were washed once in serum-free medium and re-suspended thereafter in PBS. Only suspensions consisting of single cells with >90% viability were used for the injections. Mice were injected with 1.5×10^6 cells sub-cutaneously (S.C) on the right side of hind leg of each mouse using a 23-gauge needle. After tumor transplant, the mice were observed daily for one week, before randomly assigning them to the treatment groups (n=5). The animals thereafter received triptolide (1 mg of triptolide/1 mL of C60-olive oil base) by oral gavage starting on day 15 or on tumor volume reaching ˜40-70 mm^3. The treatment was continued until ˜28 days from first dose. […] Tumor size was measured once a week. At the end of the experimental period, the animals were euthanized.

In brackets after ≈: the same amount, converted by molar mass.

We go through six compounds from patent US10342797B2, “Solubility of therapeutic agents” (LivePet LLC, priority 2016, dated 2019).

Regarding `CC(=O)O[C@H]1C(=O)[C@@]2(C)[C@H]([C@H](OC(=O)c3ccccc3)[C@]3(O)C[C@H](OC(=O)[C@H](O)[C@@H](NC(=O)c4ccccc4)c4ccccc4)C(C)=C1C3(C)C)[C@]1(OC(C)=O)CO[C@@H]1C[C@@H]2O` [paclitaxel], in series [1] (12 h), the Fold solubility is 90. For the same compound, the solubility in the series “Water solubility” amounted to 5.56 µg/mL (≈ 6.51 µM).
Consider `CC[C@@]1(O)C(=O)OCc2c1cc1n(c2=O)Cc2cc3ccccc3nc2-1` [camptothecin], for which the Fold solubility in series [1] (lipofullerene base compared to solubility in water) is 5. Also, the solubility in “Water solubility” worked out at 107 µg/mL (≈ 307 µM).
Consider `C#Cc1cccc(Nc2ncnc3cc(OCCOC)c(OCCOC)cc23)c1` [erlotinib], for which the Fold solubility in series [1] (12 h) stood at 3. For the same compound, the solubility in the series “Water solubility” amounted to 400 µg/mL (≈ 1020 µM).
Regarding `CC(C)[C@]12O[C@H]1[C@@H]1O[C@]13[C@]1(O[C@H]1C[C@H]1C4=C(CC[C@@]13C)C(=O)OC4)[C@@H]2O` [triptolide], the tumor size entry in the series with AsPC-1 cells (50 μg/kg), in the series with AsPC-1 cells (100 μg/kg) and in the series on AsPC-1 cells (250 μg/kg) was “tumor regression was observed” throughout. Besides, in series [1] (lipofullerene base of Example 1, nitrogen gas atmosphere, stirred for 2 hours), the “amount of triptolide dissolved in lipofullerene base” value is “About 2 gm/1000 mL”.
`CC(=O)O[C@@]12CO[C@@H]1C[C@H](O)[C@@]1(C)C(=O)[C@H](O)C3=C(C)[C@@H](OC(=O)[C@H](O)[C@@H](NC(=O)OC(C)(C)C)c4ccccc4)C[C@@](O)([C@@H](OC(=O)c4ccccc4)[C@H]21)C3(C)C` [docetaxel] had a Fold solubility in series [1] (12 h) of more than 100.
Consider `CC[C@]1(O)C[C@H]2CN(CCc3c([nH]c4ccccc34)[C@@](C(=O)OC)(c3cc4c(cc3OC)N(C=O)[C@H]3[C@@](O)(C(=O)OC)[C@H](OC(C)=O)[C@]5(CC)C=CCN6CC[C@]43[C@@H]65)C2)C1` [vincristine], for which the Fold solubility in series [1] (12 h) came out at 17. Further, in “Water solubility”, the solubility is 30 µg/mL (≈ 36.4 µM).
